{"source": "patent US6867185B2", "about": "(Bristol-Myers Squibb Company, priority 2001, dated 2005)", "test_system": "HCV replicon in Huh7 cells", "test": "HCV replicon cell-based assay (replicon FRET assay)", "design": "species or system HCV strain 1B", "details": "Hepatitis C virus, Huh-7, HCV replicon cell assay", "procedure,_shortened": "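Huh7 cells carrying a genotype 1b subgenomic replicon (neo, NS3–NS5B) were treated with compound for 4 days at 37 °C in 0.5% DMSO final. Lysates with 10 μM RET S1 FRET peptide and 150 mM NaCl were read kinetically at 340/490 nm over 21 cycles. EC50 was derived as for the enzyme IC50.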", "note": "Structures can show the parent of a compound that is named as a salt. Where two headings read alike, the source gives them in different places."}
{"smiles": "COc1ccc2c(O[C@@H]3C[C@H]4C(=O)N[C@]5(C(=O)NS(=O)(=O)C6CC6)CC5/C=C/CCCC[C@H](N)C(=O)N4C3)cc(-c3ccccc3)nc2c1", "note": "(stereo partly drawn) [Compound 6, (1S,4R,6S,13S,17R)-7-trans-Cyclopropanesulfonic acid [13-amino-17-(7-methoxy-2-phenylquinolin-4-yloxy)-2,14-dioxo-3,15-diazatricyclo[13.3.0.0^4,6]octadec-7-ene-4-carbonyl]amide dihydrochloride]", "values": [{"measurement": "EC50", "setting": "EC50 ranges", "value": "< 500", "unit": "nM"}, {"measurement": "EC50", "setting": "read-out: EC50", "value": "~124", "unit": "nM"}]}
